For this test, the target named is T1, KRAS (aa 1-169) G12C, C51S, C80L, C118S (Homo sapiens, UniProt P01116, C118S/C51S/C80L/G12C).
T1 construct: The KRAS (aa 1-169) G12C, C51S, C80L, C118S with a His-tag; made in house
Briefly: KRAS G12C SOS1-mediated nucleotide exchange / GST-cRaf RBD binding FRET assay. It is filed as biochemical. The following applies: GDP-loaded KRAS G12C pre-incubated with compound at 24° C. for 3 hrs; SOS1, GTPγS and GST-cRaf RBD added; FRET 665 nm/620 nm. The procedure: Biochemical Functional Assay:
The KRAS (aa 1-169) G12C, C51S, C80L, C118S with a His-tag was expressed, purified and loaded with GDP in house. All protein and substrate solutions were prepared in assay buffer containing 25 mM HEPES pH7.5, 10 mM MgCl2, and 0.01% Triton X-100. Purified GDP-loaded KRAS (aa 1-169) G12C, C51S, C80L, C118S protein was pre-incubated with a serially diluted compound at 24° C. for 3 hrs. Purified SOS1 (aa 564-1049) protein, GTPγS (Sigma) and GST-cRaf RBD (aa 1-149) were then added to each well and incubated at 24° C. for additional 3 hrs. […] Following the incubation, Mab Anti-6HIS-Tb cryptate (Cisbio) and Mab Anti GST-XL665 (Cisbio) were added and further incubated at 24° C. for 3 hrs. The binding interaction between active GTPγS KRAS G12C and GST-cRaf RBD brings the Tb and XL665 into close proximity enabling an increased FRET signal (Ex337 nm, Em665 nm/620 nm). The inhibition percentage of nucleotide exchange reaction in presence of increasing concentrations of compounds was calculated based on the ratio of fluorescence at 665 nm to that at 620 nm detected on a BMG PHERAstar FSX instrument. The IC50 value of each compound was calculated from fitting the data to the four-parameter logistic model by Dotmatics.

Structures are written as SMILES.

T1 sequence (P01116 1-169 isoform P01116-2 G12C/C51S/C80L/C118S): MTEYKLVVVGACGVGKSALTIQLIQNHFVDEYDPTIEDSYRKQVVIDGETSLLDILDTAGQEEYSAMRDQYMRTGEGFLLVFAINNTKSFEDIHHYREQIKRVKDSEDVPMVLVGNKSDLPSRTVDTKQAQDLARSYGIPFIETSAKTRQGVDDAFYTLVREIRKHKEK

For orientation: IC50 means the concentration that inhibits the measured activity by half. Consider `C=CC(=O)N1CCN(c2nc(OCC3CCCN3C)nc3c2CN(C2Cc4cccc5cccc2c45)C3)CC1CC#N` (single isomer, unassigned) [Example 15 (P1)], for which the half-maximal inhibitory concentration (IC50) is 492 nM.

On to `C=CC(=O)N1CCN(c2nc(OCC3CCCN3C)nc3c2CN(C2Cc4cccc5cccc2c45)C3)CC1CC#N` (single isomer, unassigned) [Example 15 (P2)], for which the IC50 came out at 5.27 nM.

As to `C=CC(=O)N1CCN(c2nc(N3CC(N(C)C)C3)nc3c2CN(C2Cc4cccc5cccc2c45)C3)CC1CC#N` (single isomer, unassigned) [Example 16 (P1)], the IC50 was found to be 5650 nM.

Turning to `C=CC(=O)N1CCN(c2nc(N3CC(N(C)C)C3)nc3c2CN(C2Cc4cccc5cccc2c45)C3)CC1CC#N` (single isomer, unassigned) [Example 16 (P2)], the IC50 amounted to 256 nM.

For `C=CC(=O)N1CCN(c2nc(OC3CCN(C)CC3)nc3c2CN(C2Cc4cccc5cccc2c45)C3)CC1CC#N` (single isomer, unassigned) [Example 17 (P1)], the IC50 turned out to be 2200 nM.

In the case of `C=CC(=O)N1CCN(c2nc(OC3CCN(C)CC3)nc3c2CN(C2Cc4cccc5cccc2c45)C3)CC1CC#N` (single isomer, unassigned) [Example 17 (P2)], the IC50 worked out at 949 nM.

On to `C=CC(=O)N1CCN(c2nc(OC[C@@H]3CCCN3C)nc3c2CN(Cc2cccc4ccccc24)C3)CC1` [Example 1, (S)-1-(4-(2-((1-methylpyrrolidin-2-yl)methoxy)-6-(naphthalen-1-ylmethyl)-6,7-dihydro-5H-pyrrolo[3,4-d]pyrimidin-4-yl)piperazin-1-yl)prop-2-en-1-one], for which the IC50 worked out at 3280 nM.

As for `CN(C)C/C=C/C(=O)N1CCN(c2nc(OC[C@@H]3CCCN3C)nc3c2CN(Cc2cccc4ccccc24)C3)CC1` [Example 2, (S, E)-4-(dimethylamino)-1-(4-(2-((1-methylpyrrolidin-2-yl)methoxy)-6-(naphthalen-1-ylmethyl)-6,7-dihydro-5H-pyrrolo[3,4-d]pyrimidin-4-yl)piperazin-1-yl)but-2-en-1-one], the IC50 turned out to be 46000 nM.

In the case of `C=CS(=O)(=O)N1CCN(c2nc(OC[C@@H]3CCCN3C)nc3c2CN(Cc2cccc4ccccc24)C3)CC1` [Example 3, (S)-2-((1-methylpyrrolidin-2-yl)methoxy)-6-(naphthalen-1-ylmethyl)-4-(4-(vinylsulfonyl)piperazin-1-yl)-6,7-dihydro-5H-pyrrolo[3,4-d]pyrimidine], the IC50 was found to be 23700 nM.

On to `C=CC(=O)N1CCN(c2nc(OC[C@@H]3CCCN3C)nc3c2CN(Cc2cccc(C)c2C)C3)C[C@@H]1CC#N` [Example 5, 2-((S)-1-acryloyl-4-(6-(2,3-dimethylbenzyl)-2-(((S)-1-methylpyrrolidin-2-yl)methoxy)-6,7-dihydro-5H-pyrrolo[3,4-d]pyrimidin-4-yl)piperazin-2-yl)acetonitrile], for which the IC50 amounted to 56.1 nM.

With `C=CC(=O)N1CCN(c2nc(OC[C@@H]3CCCN3C)nc3c2CN(Cc2cccc4ccccc24)C3)C[C@@H]1CC#N` [Example 6, 2-((S)-1-acryloyl-4-(2-(((S)-1-methylpyrrolidin-2-yl)methoxy)-6-(naphthalen-1-ylmethyl)-6,7-dihydro-5H-pyrrolo[3,4-d]pyrimidin-4-yl)piperazin-2-yl)acetonitrile], the IC50 was 27.7 nM.

For `C=CC(=O)N1CCN(c2nc(OC[C@@H]3CCCN3C)nc3cn(Cc4cccc5ccccc45)cc23)C[C@@H]1CC#N` [Example 7, 2-((S)-1-acryloyl-4-(2-(((S)-1-methylpyrrolidin-2-yl)methoxy)-6-(naphthalen-1-ylmethyl)-6H-pyrrolo[3,4-d]pyrimidin-yl)piperazin-2-yl)acetonitrile], the IC50 was found to be 174 nM.

As to `C=CC(=O)N1CCN(c2nc(OC[C@@H]3CCCN3C)nc3c2CN(Cc2cccc4cccc(C)c24)C3)C[C@@H]1CC#N` [Example 8, 2-((S)-1-acryloyl-4-(6-((8-methylnaphthalen-1-yl)methyl)-2-(((S)-1-methylpyrrolidin-2-yl)methoxy)-6,7-dihydro-5H-pyrrolo[3,4-d]pyrimidin-4-yl)piperazin-2-yl)acetonitrile], the IC50 worked out at 495 nM.

`C=CC(=O)N1CCN(c2nc(OC[C@@H]3CCCN3C)nc3c2CN(Cc2cccc4cccc(Cl)c24)C3)C[C@@H]1CC#N` [Example 9, 2-((S)-1-acryloyl-4-(6-((8-chloronaphthalen-1-yl)methyl)-2-(((S)-1-methylpyrrolidin-2-yl)methoxy)-6,7-dihydro-5H-pyrrolo[3,4-d]pyrimidin-4-yl)piperazin-2-yl)acetonitrile]: the half-maximal inhibitory concentration (IC50) came to 265 nM.

With `C=CC(=O)N1CCN(c2nc(OC[C@@H]3CCCN3C)nc3c2CN(Cc2ccc(F)c4ccccc24)C3)C[C@@H]1CC#N` [Example 10, 2-((S)-1-acryloyl-4-(6-((4-fluoronaphthalen-1-yl)methyl)-2-(((S)-1-methylpyrrolidin-2-yl)methoxy)-6,7-dihydro-5H-pyrrolo[3,4-d]pyrimidin-4-yl)piperazin-2-yl)acetonitrile], the IC50 was 415 nM.

With `C=CC(=O)N1CCN(c2nc(OC[C@@H]3CCCN3C)nc3c2CN(C(C)c2cccc4ccccc24)C3)C[C@@H]1CC#N` (stereo partly drawn) [Example 11, 2-((2S)-1-acryloyl-4-(2-(((S)-1-methylpyrrolidin-2-yl)methoxy)-6-(1-(naphthalen-1-yl)ethyl)-6,7-dihydro-5H-pyrrolo[3,4-d]pyrimidin-4-yl)piperazin-2-yl)acetonitrile], the IC50 is 170 nM.

In the case of `C=CC(=O)N1CCN(c2nc(OC3CCN(C4CCOCC4)CC3)nc3c2CN(C2Cc4cccc5cccc2c45)C3)C[C@@H]1CC#N` (stereo partly drawn) [Example 12, 2-((2S)-1-acryloyl-4-(6-(1,2-dihydroacenaphthylen-1-yl)-2-((1-(tetrahydro-2H-pyran-4-yl)piperidin-4-yl)oxy)-6,7-dihydro-5H-pyrrolo[3,4-d]pyrimidin-4-yl)piperazin-2-yl)acetonitrile], the IC50 was determined as 379 nM.

Regarding `C=CC(=O)N1CCN(c2nc(OC3CCN(C)CC3)nc3c2CN(Cc2cccc4ccccc24)C3)C[C@@H]1CC#N` [Example 18, (S)-2-(1-acryloyl-4-(2-((1-methylpiperidin-4-yl)oxy)-6-(naphthalen-1-ylmethyl)-6,7-dihydro-5H-pyrrolo[3,4-d]pyrimidin-4-yl)piperazin-2-yl)acetonitrile], the IC50 was 1560 nM.

For `C=CC(=O)N1CCN(c2nc(N3CC(N(C)C)C3)nc3c2CN(Cc2cccc4ccccc24)C3)C[C@@H]1CC#N` [Example 19, (S)-2-(1-acryloyl-4-(2-(3-(dimethylamino)azetidin-1-yl)-6-(naphthalen-1-ylmethyl)-6,7-dihydro-5H-pyrrolo[3,4-d]pyrimidin-4-yl)piperazin-2-yl)acetonitrile], the IC50 was determined as 976 nM.

As for `C=CC(=O)N1CCN(c2nc(OC[C@@H]3CCCN3C)nc3c2CN(Cc2ccc4ccccc4c2)C3)C[C@@H]1CC#N` [Example 20, 2-((S)-1-acryloyl-4-(2-(((S)-1-methylpyrrolidin-2-yl)methoxy)-6-(naphthalen-2-ylmethyl)-6,7-dihydro-5H-pyrrolo[3,4-d]pyrimidin-4-yl)piperazin-2-yl)acetonitrile], the IC50 turned out to be 2880 nM.

Consider `C=CC(=O)N1CCN(c2nc(OC[C@@H]3CCCN3C)nc3c2CN(Cc2cccc4c2CCO4)C3)C[C@@H]1CC#N` [Example 21, 2-((S)-1-acryloyl-4-(6-((2,3-dihydrobenzofuran-4-yl)methyl)-2-(((S)-1-methylpyrrolidin-2-yl)methoxy)-6,7-dihydro-5H-pyrrolo[3,4-d]pyrimidin-4-yl)piperazin-2-yl)acetonitrile], for which the IC50 is 92.5 nM.

On to `C=CC(=O)N1CCN(c2nc(OC[C@@H]3CCCN3C)nc3c2CN(Cc2cc(O)ccc2F)C3)C[C@@H]1CC#N` [Example 22, 2-((S)-1-acryloyl-4-(6-(2-fluoro-5-hydroxybenzyl)-2-(((S)-1-methylpyrrolidin-2-yl)methoxy)-6,7-dihydro-5H-pyrrolo[3,4-d]pyrimidin-4-yl)piperazin-2-yl)acetonitrile], for which the IC50 stood at 9.63 nM.

As to `C=CC(=O)N1CCN(c2nc(OC[C@@H]3CCCN3C)nc3c2CN(Cc2c(O)cccc2F)C3)C[C@@H]1CC#N` [Example 23, 2-((S)-1-acryloyl-4-(6-(2-fluoro-6-hydroxybenzyl)-2-(((S)-1-methylpyrrolidin-2-yl)methoxy)-6,7-dihydro-5H-pyrrolo[3,4-d]pyrimidin-4-yl)piperazin-2-yl)acetonitrile], the IC50 worked out at 28.1 nM.

For `C=CC(=O)N1CCN(c2nc(OC[C@@H]3CCCN3C)nc3c2CN(Cc2cccc4cccc(O)c24)C3)C[C@@H]1CC#N` [Example 24, 2-((S)-1-acryloyl-4-(6-((8-hydroxynaphthalen-1-yl)methyl)-2-(((S)-1-methylpyrrolidin-2-yl)methoxy)-6,7-dihydro-5H-pyrrolo[3,4-d]pyrimidin-4-yl)piperazin-2-yl)acetonitrile], the IC50 came out at 101 nM.

(Values after patent publication US12630552B2, “Inhibitors of KRAS G12C” (BEIGENE, LTD., priority 2019, dated 2026).)
